These compounds were tested on OVCAR8 (assay: drug sensitivity score (DSS) from 5-point dose-response viability curve (DSS (area-under-curve based score)); higher = more sensitive (stronger growth inhibition or killing); extreme values may be limits of the assay). Details: exposure time: 72 h; concentration range: 5 concentrations over 10,000-fold range.
Summary of the method: (§1)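 Drugs in DMSO or water were acoustically dispensed (Echo 550) into 384-well plates at five concentrations across a 10,000-fold range. Ovarian cancer and normal ovarian cells (1,500 per well) were then added, incubated for 3 days at 37°C with 5% CO2, and read for viability by CellTiter-Glo luminescence on a PHERAstar FS. From these readings, Breeze software derived a drug sensitivity score per cell line and drug, with higher values meaning more sensitive and zero meaning no response.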

Row | Compound | drug sensitivity score
1 | CCN(CC)CCCC(C)Nc1c2ccc(Cl)cc2nc2ccc(OC)cc12 (stereo unspecified) [Mepacrine] | 12.1
2 | S=c1[nH]cnc2nc[nH]c12 [Mercaptopurine] | 8.6
3 | Cc1ccc(C(=O)Nc2ccc(Oc3cc4cnn(C)c4cc3-c3cn[nH]c3)c(F)c2)c(=O)n1-c1ccc(F)cc1 [Merestinib] | 0.1
4 | CN(C)C(=N)NC(=N)N [Metformin] | 0
5 | CN(Cc1cnc2nc(N)nc(N)c2n1)c1ccc(C(=O)N[C@@H](CCC(=O)O)C(=O)O)cc1 [Methotrexate] | 12.3
6 | C[C@H]1C[C@@H]2[C@H]([C@@H](O)C[C@@]3(C)[C@H]2CC[C@]3(O)C(=O)CO)[C@@]2(C)C=CC(=O)C=C12 [Methylprednisolone] | 0.2
7 | CO[C@@H]1[C@H](N(C)C(=O)c2ccccc2)C[C@H]2O[C@]1(C)n1c3ccccc3c3c4c(c5c6ccccc6n2c5c31)C(=O)NC4 [Midostaurin] | 7
8 | CNC(=O)c1nn(C)c2c1C(C)(C)Cc1cnc(Nc3ccc(N4CCN(C)CC4)cc3)nc1-2 [Milciclib] | 6.2
9 | CCCCCCCCCCCCCCCCOP(=O)([O-])OCC[N+](C)(C)C [Miltefosine] | 5
10 | CO[C@@]12[C@H](COC(N)=O)C3=C(C(=O)C(C)=C(N)C3=O)N1C[C@@H]1N[C@@H]12 [Mitomycin C] | 0
11 | Clc1ccc(C(c2ccccc2Cl)C(Cl)Cl)cc1 (stereo unspecified) [Mitotane] | 0
12 | O=C1c2c(O)ccc(O)c2C(=O)c2c(NCCNCCO)ccc(NCCNCCO)c21 [Mitoxantrone] | 9.2
13 | CCS(=O)(=O)Nc1ccc(Oc2ccc(F)cc2F)c(-c2cn(C)c(=O)c3[nH]ccc23)c1 [Mivebresib] | 24.7
14 | Nc1ccccc1NC(=O)c1ccc(CNc2nccc(-c3cccnc3)n2)cc1 [Mocetinostat] | 13
15 | CCNC(=O)C[C@@H]1N=C(c2ccc(Cl)cc2)c2cc(OC)ccc2-n2c(C)nnc21 [Molibresib] | 5.7
16 | N#CCNC(=O)c1ccc(-c2ccnc(Nc3ccc(N4CCOCC4)cc3)n2)cc1 [Momelotinib] | 4.8
17 | CC1(C)CNc2cc(NC(=O)c3cccnc3NCc3ccncc3)ccc21 [Motesanib] | 0
18 | CCCN(CCC)C(=O)C1=Cc2ccc(-c3ccc(C(=O)N4CCCC4)cc3)cc2N=C(N)C1 [Motolimod] | 0.8
19 | FC(F)(F)c1ccc(/C=C/c2nc(COc3ccc(CCCCn4ccnn4)cc3)co2)cc1 [Mubritinib] | 16.7
20 | Cc1cc(OCc2nnc(SC3CCCC3)n2-c2cccnc2)ccc1-c1ccc(S(C)(=O)=O)cc1 [NMS-873] | 19.9
21 | COc1ccc(-c2ccc3ncc4c(c3c2)n(-c2ccc(N3CCNCC3)c(C(F)(F)F)c2)c(=O)n4C)cn1 [NVP-BGT226] | 14.9
22 | Cc1ccc(C(=O)Nc2cccc(C(F)(F)F)c2)cc1Nc1nc(-c2cccnc2)nc2c1cnn2C [NVP-BHG712] | 4.9
23 | COc1cc2c(cc1OC(C)C)[C@H](c1ccc(Cl)cc1)N(c1ccc(N(C)C[C@H]3CC[C@H](N4CCN(C)C(=O)C4)CC3)cc1)C(=O)C2 [NVP-CGM097] | 5.7
24 | CN[C@@H](C)C(=O)N[C@H](C(=O)N1CCC[C@H]1c1nc(C(=O)c2ccc(F)cc2)cs1)C1CCCCC1 [NVP-LCL161] | 8.5
25 | Cn1c(Nc2ccc(C(F)(F)F)cc2)nc2cc(Oc3ccnc(-c4ncc(C(F)(F)F)[nH]4)c3)ccc21 [NVP-RAF265] | 1.9
26 | CC(=O)c1cc2c(o1)C(=O)c1ccccc1C2=O [Napabucasin] | 16.3
27 | CC1(C)CCC(c2ccc(Cl)cc2)=C(CN2CCN(c3ccc(C(=O)NS(=O)(=O)c4ccc(N[C@H](CCN5CCOCC5)CSc5ccccc5)c(S(=O)(=O)C(F)(F)F)c4)cc3)CC2)C1 [Navitoclax] | 0

The compounds below were run on HOSE1C in the same assay as above. Details: exposure time: 72 h; concentration range: 5 concentrations over 10,000-fold range.
Summary of the method: as §1

Row | Compound | drug sensitivity score
28 | CCN(CC)CCCC(C)Nc1c2ccc(Cl)cc2nc2ccc(OC)cc12 (stereo unspecified) [Mepacrine] | 9.7
29 | S=c1[nH]cnc2nc[nH]c12 [Mercaptopurine] | 0
30 | Cc1ccc(C(=O)Nc2ccc(Oc3cc4cnn(C)c4cc3-c3cn[nH]c3)c(F)c2)c(=O)n1-c1ccc(F)cc1 [Merestinib] | 0
31 | CN(C)C(=N)NC(=N)N [Metformin] | 0
32 | CN(Cc1cnc2nc(N)nc(N)c2n1)c1ccc(C(=O)N[C@@H](CCC(=O)O)C(=O)O)cc1 [Methotrexate] | 13.7
33 | C[C@H]1C[C@@H]2[C@H]([C@@H](O)C[C@@]3(C)[C@H]2CC[C@]3(O)C(=O)CO)[C@@]2(C)C=CC(=O)C=C12 [Methylprednisolone] | 0
34 | CO[C@@H]1[C@H](N(C)C(=O)c2ccccc2)C[C@H]2O[C@]1(C)n1c3ccccc3c3c4c(c5c6ccccc6n2c5c31)C(=O)NC4 [Midostaurin] | 11.7
35 | CNC(=O)c1nn(C)c2c1C(C)(C)Cc1cnc(Nc3ccc(N4CCN(C)CC4)cc3)nc1-2 [Milciclib] | 8.8
36 | CCCCCCCCCCCCCCCCOP(=O)([O-])OCC[N+](C)(C)C [Miltefosine] | 5.5
37 | CO[C@@]12[C@H](COC(N)=O)C3=C(C(=O)C(C)=C(N)C3=O)N1C[C@@H]1N[C@@H]12 [Mitomycin C] | 0
38 | Clc1ccc(C(c2ccccc2Cl)C(Cl)Cl)cc1 (stereo unspecified) [Mitotane] | 0
39 | O=C1c2c(O)ccc(O)c2C(=O)c2c(NCCNCCO)ccc(NCCNCCO)c21 [Mitoxantrone] | 12.5
40 | CCS(=O)(=O)Nc1ccc(Oc2ccc(F)cc2F)c(-c2cn(C)c(=O)c3[nH]ccc23)c1 [Mivebresib] | 30.7
41 | Nc1ccccc1NC(=O)c1ccc(CNc2nccc(-c3cccnc3)n2)cc1 [Mocetinostat] | 17.8
42 | CCNC(=O)C[C@@H]1N=C(c2ccc(Cl)cc2)c2cc(OC)ccc2-n2c(C)nnc21 [Molibresib] | 9.8
43 | N#CCNC(=O)c1ccc(-c2ccnc(Nc3ccc(N4CCOCC4)cc3)n2)cc1 [Momelotinib] | 6.8
44 | CC1(C)CNc2cc(NC(=O)c3cccnc3NCc3ccncc3)ccc21 [Motesanib] | 0
45 | CCCN(CCC)C(=O)C1=Cc2ccc(-c3ccc(C(=O)N4CCCC4)cc3)cc2N=C(N)C1 [Motolimod] | 0
46 | FC(F)(F)c1ccc(/C=C/c2nc(COc3ccc(CCCCn4ccnn4)cc3)co2)cc1 [Mubritinib] | 0
47 | Cc1cc(OCc2nnc(SC3CCCC3)n2-c2cccnc2)ccc1-c1ccc(S(C)(=O)=O)cc1 [NMS-873] | 9.3
48 | COc1ccc(-c2ccc3ncc4c(c3c2)n(-c2ccc(N3CCNCC3)c(C(F)(F)F)c2)c(=O)n4C)cn1 [NVP-BGT226] | 22.2
49 | Cc1ccc(C(=O)Nc2cccc(C(F)(F)F)c2)cc1Nc1nc(-c2cccnc2)nc2c1cnn2C [NVP-BHG712] | 2.2
50 | COc1cc2c(cc1OC(C)C)[C@H](c1ccc(Cl)cc1)N(c1ccc(N(C)C[C@H]3CC[C@H](N4CCN(C)C(=O)C4)CC3)cc1)C(=O)C2 [NVP-CGM097] | 11.4
51 | CN[C@@H](C)C(=O)N[C@H](C(=O)N1CCC[C@H]1c1nc(C(=O)c2ccc(F)cc2)cs1)C1CCCCC1 [NVP-LCL161] | 0.7
52 | Cn1c(Nc2ccc(C(F)(F)F)cc2)nc2cc(Oc3ccnc(-c4ncc(C(F)(F)F)[nH]4)c3)ccc21 [NVP-RAF265] | 6.9
53 | CC(=O)c1cc2c(o1)C(=O)c1ccccc1C2=O [Napabucasin] | 28.9
54 | CC1(C)CCC(c2ccc(Cl)cc2)=C(CN2CCN(c3ccc(C(=O)NS(=O)(=O)c4ccc(N[C@H](CCN5CCOCC5)CSc5ccccc5)c(S(=O)(=O)C(F)(F)F)c4)cc3)CC2)C1 [Navitoclax] | 24.2

The compounds below were run on Kuramochi in the same assay as above. Details: exposure time: 72 h; concentration range: 5 concentrations over 10,000-fold range.
Summary of the method: as §1

Row | Compound | drug sensitivity score
55 | CCN(CC)CCCC(C)Nc1c2ccc(Cl)cc2nc2ccc(OC)cc12 (stereo unspecified) [Mepacrine] | 13.2
56 | S=c1[nH]cnc2nc[nH]c12 [Mercaptopurine] | 7.7
57 | Cc1ccc(C(=O)Nc2ccc(Oc3cc4cnn(C)c4cc3-c3cn[nH]c3)c(F)c2)c(=O)n1-c1ccc(F)cc1 [Merestinib] | 1.1
58 | CN(C)C(=N)NC(=N)N [Metformin] | 0
59 | CN(Cc1cnc2nc(N)nc(N)c2n1)c1ccc(C(=O)N[C@@H](CCC(=O)O)C(=O)O)cc1 [Methotrexate] | 13
60 | C[C@H]1C[C@@H]2[C@H]([C@@H](O)C[C@@]3(C)[C@H]2CC[C@]3(O)C(=O)CO)[C@@]2(C)C=CC(=O)C=C12 [Methylprednisolone] | 0
61 | CO[C@@H]1[C@H](N(C)C(=O)c2ccccc2)C[C@H]2O[C@]1(C)n1c3ccccc3c3c4c(c5c6ccccc6n2c5c31)C(=O)NC4 [Midostaurin] | 7.2
62 | CNC(=O)c1nn(C)c2c1C(C)(C)Cc1cnc(Nc3ccc(N4CCN(C)CC4)cc3)nc1-2 [Milciclib] | 10.1
63 | CCCCCCCCCCCCCCCCOP(=O)([O-])OCC[N+](C)(C)C [Miltefosine] | 5.8
64 | CO[C@@]12[C@H](COC(N)=O)C3=C(C(=O)C(C)=C(N)C3=O)N1C[C@@H]1N[C@@H]12 [Mitomycin C] | 0
65 | Clc1ccc(C(c2ccccc2Cl)C(Cl)Cl)cc1 (stereo unspecified) [Mitotane] | 0
66 | O=C1c2c(O)ccc(O)c2C(=O)c2c(NCCNCCO)ccc(NCCNCCO)c21 [Mitoxantrone] | 3.2
67 | CCS(=O)(=O)Nc1ccc(Oc2ccc(F)cc2F)c(-c2cn(C)c(=O)c3[nH]ccc23)c1 [Mivebresib] | 22.6
68 | Nc1ccccc1NC(=O)c1ccc(CNc2nccc(-c3cccnc3)n2)cc1 [Mocetinostat] | 7
69 | CCNC(=O)C[C@@H]1N=C(c2ccc(Cl)cc2)c2cc(OC)ccc2-n2c(C)nnc21 [Molibresib] | 9.3
70 | N#CCNC(=O)c1ccc(-c2ccnc(Nc3ccc(N4CCOCC4)cc3)n2)cc1 [Momelotinib] | 1
71 | CC1(C)CNc2cc(NC(=O)c3cccnc3NCc3ccncc3)ccc21 [Motesanib] | 2.1
72 | CCCN(CCC)C(=O)C1=Cc2ccc(-c3ccc(C(=O)N4CCCC4)cc3)cc2N=C(N)C1 [Motolimod] | 0.3
73 | FC(F)(F)c1ccc(/C=C/c2nc(COc3ccc(CCCCn4ccnn4)cc3)co2)cc1 [Mubritinib] | 0.6
74 | Cc1cc(OCc2nnc(SC3CCCC3)n2-c2cccnc2)ccc1-c1ccc(S(C)(=O)=O)cc1 [NMS-873] | 6.8
75 | COc1ccc(-c2ccc3ncc4c(c3c2)n(-c2ccc(N3CCNCC3)c(C(F)(F)F)c2)c(=O)n4C)cn1 [NVP-BGT226] | 10.2
76 | Cc1ccc(C(=O)Nc2cccc(C(F)(F)F)c2)cc1Nc1nc(-c2cccnc2)nc2c1cnn2C [NVP-BHG712] | 2.5
77 | COc1cc2c(cc1OC(C)C)[C@H](c1ccc(Cl)cc1)N(c1ccc(N(C)C[C@H]3CC[C@H](N4CCN(C)C(=O)C4)CC3)cc1)C(=O)C2 [NVP-CGM097] | 5.5
78 | CN[C@@H](C)C(=O)N[C@H](C(=O)N1CCC[C@H]1c1nc(C(=O)c2ccc(F)cc2)cs1)C1CCCCC1 [NVP-LCL161] | 1.9
79 | Cn1c(Nc2ccc(C(F)(F)F)cc2)nc2cc(Oc3ccnc(-c4ncc(C(F)(F)F)[nH]4)c3)ccc21 [NVP-RAF265] | 0
80 | CC(=O)c1cc2c(o1)C(=O)c1ccccc1C2=O [Napabucasin] | 16.7
81 | CC1(C)CCC(c2ccc(Cl)cc2)=C(CN2CCN(c3ccc(C(=O)NS(=O)(=O)c4ccc(N[C@H](CCN5CCOCC5)CSc5ccccc5)c(S(=O)(=O)C(F)(F)F)c4)cc3)CC2)C1 [Navitoclax] | 0
